Mean survival data for 19 compounds are collected here from ChEMBL document CHEMBL1132691, “Structure-immunosuppressive activity relationships of new analogues of 15-deoxyspergualin. 2. Structural modifications of the spermidine moiety” (1999).

Experiment [1] has as its system Mus musculus. As to the kind of experiment: Tested in vivo against mouse graft-versus-host disease(GVHD) for survival (mean) after daily administration of 3 mg/kg (i.p.) using group of 8 mice/dose for 10 days. The experiment is classed as functional. Particulars: route intraperitoneal.
The test system of experiment [2] is Mus musculus. The experiment is described as follows: Tested in vivo against mouse graft-versus-host disease(GVHD) for survival (mean) after daily administration of 0.3 mg/kg (i.p.) using group of 8 mice/dose for 10 days. The experiment is classed as functional. The conditions noted are these: route intraperitoneal.
The test system of experiment [3] is Rattus norvegicus. The experiment is described as follows: The compound was tested in vivo against heart transplanted rat for survival (mean) after daily administration of 6 mg/kg(ip) for 10 days. The experiment is classed as functional.
Experiment [4] deals with Rattus norvegicus. As to the kind of experiment: The compound was tested in vivo against heart transplanted rat for survival (mean) after daily administration of 2.5 mg/kg(ip) for 10 days. The experiment is classed as functional.
Experiment [5] deals with Rattus norvegicus. As to the kind of experiment: The compound was tested in vivo against heart transplanted rat for survival (mean) after daily administration of 6 mg/kg(ip) for 10 days.

For `CC(CCCNCCCN)NC(=O)CC(=O)NCCCCCCN=C(N)N` (configuration not stated), the Mean survival in the experiment on Mus musculus [1] came to 21 days.

Take `C[C@H](N)CCNCCCCNC(=O)OCC(=O)NCCCCCCN=C(N)N`: the Mean survival with Mus musculus [2] worked out at 16 days; with Mus musculus [1] it was 25 days; in the experiment with Rattus norvegicus [3], 9 days.

With `CCC(N)CCNCCCCNC(=O)OCC(=O)NCCCCCCN=C(N)N` (configuration not stated), the figures for the Mean survival in the experiment on Mus musculus [2] and in the experiment with Mus musculus [1] were 16 days and 21 days, respectively.

With `CC(N)CCNCCCCNC(=O)OCC(=O)NCCCCCCN=C(N)N` (configuration not stated), the Mean survival in the experiment on Mus musculus [2] turned out to be 53 days; in the experiment on Mus musculus [1], 57 days; in the experiment with Rattus norvegicus [4], 56 days.

`NC(N)=NCCCCCCNC(=O)COC(=O)NCCCCNCCC(N)c1ccccc1` (configuration not stated): the Mean survival in the experiment on Mus musculus [2] and with Mus musculus [1] was 15 days throughout.

On to `NCCCCNC(=O)OCC(=O)NCCCCCCN=C(N)N`, for which the Mean survival in the experiment on Mus musculus [2] and with Mus musculus [1] was 14 days throughout.

For `CC(CCN)NCCCCNC(=O)CC(=O)NCCCCCCN=C(N)N` (configuration not stated), the Mean survival in the experiment with Mus musculus [2] stood at 11 days; in the experiment on Mus musculus [1] it was 12 days.

The compound `N=C(N)NCCCCCCC(=O)NC(O)C(=O)NCCCCNCCCN` (configuration not stated) [GUSPERIMUS] displayed a Mean survival in the experiment with Rattus norvegicus [5] of 38 days.

As to `C[C@H](N)CCNCCCCNC(=O)CC(=O)NCCCCCCN=C(N)N`, the Mean survival in the experiment with Mus musculus [1] was 17 days.

Regarding `C[C@@H](N)CCNCCCCNC(=O)OCC(=O)NCCCCCCNC(=N)N` [ANISPERIMUS], the values for the Mean survival with Mus musculus [2], in the experiment on Mus musculus [1] and in the experiment with Rattus norvegicus [4] were 60 days, 60 days and 80 days, respectively.

Take `NC(N)=NCCCCCCNC(=O)COC(=O)NCCCCNCCC(N)C(F)(F)F` (configuration not stated): the figures for the Mean survival in the experiment on Mus musculus [2] and with Mus musculus [1] were 16 days and 17 days, respectively.

Consider `CN(CCCN)CCCCNC(=O)CC(=O)NCCCCCCN=C(N)N`, for which the Mean survival with Mus musculus [2] and in the experiment on Mus musculus [1] was 14 days each time.

`NCCCNCCCCNC(=O)CC(=O)NCCCCCCN=C(N)N`: the Mean survival with Mus musculus [2] came to 17 days; in the experiment with Mus musculus [1], 52 days; in the experiment on Rattus norvegicus [3] it was 9 days.

In the case of `CC(N)CCNCCCCNC(=O)CC(=O)NCCCCCCN=C(N)N` (configuration not stated), the Mean survival with Mus musculus [2] came out at 17 days; with Mus musculus [1], 60 days; in the experiment on Rattus norvegicus [3], 24 days.

For `CC(CCCNC(=O)CC(=O)NCCCCCCN=C(N)N)NCCCN` (configuration not stated), the Mean survival was 11 days in the experiment with Mus musculus [2] and 14 days in the experiment with Mus musculus [1].

Consider `C[C@@H](N)CCNCCCCNC(=O)CC(=O)NCCCCCCN=C(N)N`, for which the Mean survival stood at 26 days with Mus musculus [2], 49 days in the experiment on Mus musculus [1] and 68 days in the experiment with Rattus norvegicus [3].

As to `CC(C)(N)CCNCCCCNC(=O)CC(=O)NCCCCCCN=C(N)N`, the Mean survival with Mus musculus [2] and with Mus musculus [1] was 15 days each time.

In the case of `CC(CN)CNCCCCNC(=O)CC(=O)NCCCCCCN=C(N)N` (configuration not stated), the Mean survival in the experiment on Mus musculus [2] and in the experiment with Mus musculus [1] was 18 days in each case.

For `N=C(N)NCCCCCCNC(=O)COC(=O)NCCCCNCCCN` [TRESPERIMUS], the Mean survival in the experiment on Mus musculus [2] came to 15 days; in the experiment with Mus musculus [1] it was 58 days; with Rattus norvegicus [4], 16 days.
